Measured values reported in article PMC3559838 (PLoS ONE, 2013).
Where two headings read alike, the source gives them in different places.

Columns and labels:
[1] = system: HepG2 cells; assay: Gentian Violet viability staining, 24-well plates; type: cell-based, human; details: 0–10 µM, 72 h
Protocol: (§1) To the other plate, equal molar concentrations of belinostat-G were added similarly. After 72 h, cells were stained with Gentian Violet paint (0.5% w/v; B.P.) and assessed for viability. […] After incubating 24 h, 100-µL drug solution or blank medium was added into each well of 96-well plates. 72 h later, 20 µL of MTS/PES was added into each well for incubation for 3 h. OD values are measured on wavelength 490 nm. Cell growth inhibition was calculated based on the […] with subtraction of background reading for only medium containing wells. The growth inhibition was defined as the percentage of the average […] from drug-treated wells over that from control wells without treatment. The experiment was done in triplicates. IC50 values were calculated using GraphPad PRISM software (GraphPad Software, Inc., La Jolla, CA, USA).

[2] = system: HepG2 cells; assay: MTS growth inhibition assay; type: cell-based, human; details: Homo sapiens, HepG2, 72 h
Protocol: as §1

[3] = system: Histone H3 acetylation (Ac-H3 [K9/K14]) in HepG2 cells; assay: Western blot of acetyl histone H3; type: cell-based, human; details: dose increment after 5 h, time course at 10 µM
Protocol: Protein concentrations were quantified using the Bradford assay (Invitrogen). Proteins were separated on a 12% SDS-PAGE gel and transferred to nitrocellulose membrane. Nonspecific protein binding was blocked by incubating with 5% non-fat milk (BioRad Laboratories) in 0.1% PBS-Tween (PBST) at room temperature for 1 h and incubated with specific antibodies, Histone H3 and Ac-H3 [K9/K14] (Cell Signaling), at 4°C overnight. Appropriate species-specific Horseradish peroxidises-conjugated secondary antibodies were then added and incubated at room temperature for 1 h followed by detection using an enhanced chemiluminescence kit (GE Healthcare).

[4] = target: T1, UGT1A10 (Homo sapiens, UniProt Q9HAW8); assay: UGT supersome screening; type: in vitro ADME; details: UGT1A10 supersomes, 10 µM belinostat, 37°C
T1 construct: purchased BD Gentest
Protocol: (§2) Before the addition of substrate, the incubation mixture was prewarmed and equilibrated for 5 min at 37°C. […] The incubation mixture was vortexed and centrifuged (10,060 g) at 4°C for 10 min, and the supernatants were analyzed. Insect microsomes without UGT cDNA served as negative control. […] Incubations were performed as described above. Three independent experiments were performed for kinetic analysis.

[5] = target: T2, UGT1A4 (Homo sapiens, UniProt P22310); assay: UGT supersome screening; type: in vitro ADME; details: UGT1A4 supersomes, 10 µM belinostat, 37°C
T2 construct: purchased BD Gentest
Protocol: as §2

[6] = target: T3, UGT1A6 (Homo sapiens, UniProt P19224); assay: UGT supersome screening; type: in vitro ADME; details: UGT1A6 supersomes, 10 µM belinostat, 37°C
T3 construct: purchased BD Gentest
Protocol: as §2

[7] = target: T4, UGT1A7 (Homo sapiens, UniProt Q9HAW7); assay: UGT supersome screening; type: in vitro ADME; details: UGT1A7 supersomes, 10 µM belinostat, 37°C
T4 construct: purchased BD Gentest
Protocol: as §2

[8] = target: T5, UGT1A9 (Homo sapiens, UniProt O60656); assay: UGT supersome screening; type: in vitro ADME; details: UGT1A9 supersomes, 10 µM belinostat, 37°C
T5 construct: purchased BD Gentest
Protocol: as §2

[9] = target: T6, UGT2B15 (Homo sapiens, UniProt P54855); assay: UGT supersome screening; type: in vitro ADME; details: UGT2B15 supersomes, 10 µM belinostat, 37°C
T6 construct: purchased BD Gentest
Protocol: as §2

[10] = target: T7, UGT2B17 (Homo sapiens, UniProt O75795); assay: UGT supersome screening; type: in vitro ADME; details: UGT2B17 supersomes, 10 µM belinostat, 37°C
T7 construct: purchased BD Gentest
Protocol: as §2

[11] = system: cisplatin-resistant A2780/cp70; set-up: method as in Plumb et al., 2003; Investigator's Brochure, 2004; details: A2780/cp70 xenografts, 10 mg/kg/day IP once daily for 7 days; ref Plumb et al., 2003; Investigator's Brochure, 2004; cited from earlier work
[12] = system: HCT116 colon cancer cells; set-up: method as in Plumb et al., 2003; Investigator's Brochure, 2004; details: HCT116 xenografts, 40 mg/kg/day IP once daily for 7 days; ref Plumb et al., 2003; Investigator's Brochure, 2004; cited from earlier work
[13] = set-up: method as in Investigator's Brochure, 2004; details: dogs, ref Investigator's Brochure, 2004, cited from earlier work
[14] = set-up: method as in Investigator's Brochure, 2004; details: arginine formulation, human blood ex vivo; ref Investigator's Brochure, 2004; cited from earlier work
[15] = set-up: method as in Investigator's Brochure, 2004; details: mice, single IP injection of 20 mg/kg, ref Investigator's Brochure, 2004, cited from earlier work
[16] = set-up: method as in Investigator's Brochure, 2004; details: following 5 or 7 days of treatment; ref Investigator's Brochure, 2004; cited from earlier work
[17] = set-up: method as in Plumb et al., 2003; details: dogs, 45 minute IV infusion of 50 mg/kg; ref Plumb et al., 2003; cited from earlier work
[18] = set-up: method as in Investigator's Brochure, 2004; details: dogs, ref Investigator's Brochure, 2004, cited from earlier work; remark: listed apart in the source
[19] = system: CYP2C9; set-up: method as in protocol pharmaceutical information; details: ref protocol pharmaceutical information; cited from earlier work
[20] = system: CYP3A4; set-up: method as in protocol pharmaceutical information; details: ref protocol pharmaceutical information; cited from earlier work
[21] = set-up: method as in Investigator's Brochure, 2004; details: rats and dogs; ref Investigator's Brochure, 2004; cited from earlier work
[22] = system: five major cytochrome P450 enzymes; details: cited from earlier work

T1 sequence (Q9HAW8 26-530): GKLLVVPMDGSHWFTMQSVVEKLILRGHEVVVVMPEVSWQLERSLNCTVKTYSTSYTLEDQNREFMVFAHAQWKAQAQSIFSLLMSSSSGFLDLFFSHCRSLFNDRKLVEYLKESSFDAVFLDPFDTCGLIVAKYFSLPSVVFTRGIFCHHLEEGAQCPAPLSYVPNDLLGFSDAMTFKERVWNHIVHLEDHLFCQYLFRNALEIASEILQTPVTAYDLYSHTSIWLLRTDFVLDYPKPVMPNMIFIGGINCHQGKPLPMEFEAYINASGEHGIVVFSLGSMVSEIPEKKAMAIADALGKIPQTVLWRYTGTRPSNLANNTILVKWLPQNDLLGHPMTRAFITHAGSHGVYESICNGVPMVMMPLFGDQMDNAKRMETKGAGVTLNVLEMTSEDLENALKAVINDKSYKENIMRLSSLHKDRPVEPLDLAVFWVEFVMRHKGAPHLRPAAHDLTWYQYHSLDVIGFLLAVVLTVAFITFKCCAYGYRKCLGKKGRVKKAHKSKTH
T7 sequence (O75795 24-530): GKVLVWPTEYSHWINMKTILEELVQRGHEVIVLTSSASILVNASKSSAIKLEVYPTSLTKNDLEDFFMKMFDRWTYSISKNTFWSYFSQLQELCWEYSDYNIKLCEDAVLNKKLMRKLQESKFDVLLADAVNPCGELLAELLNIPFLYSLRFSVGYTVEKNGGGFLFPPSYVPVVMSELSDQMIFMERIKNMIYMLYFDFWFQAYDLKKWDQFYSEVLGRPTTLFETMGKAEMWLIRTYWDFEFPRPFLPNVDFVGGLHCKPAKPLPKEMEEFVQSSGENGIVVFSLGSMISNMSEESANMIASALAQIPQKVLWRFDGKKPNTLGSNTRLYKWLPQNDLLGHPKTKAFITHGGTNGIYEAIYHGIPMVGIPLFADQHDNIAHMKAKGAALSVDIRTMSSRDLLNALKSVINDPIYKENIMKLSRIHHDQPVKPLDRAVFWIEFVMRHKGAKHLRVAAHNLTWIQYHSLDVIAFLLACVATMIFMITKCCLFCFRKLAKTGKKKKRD
T4 sequence (Q9HAW7 26-530): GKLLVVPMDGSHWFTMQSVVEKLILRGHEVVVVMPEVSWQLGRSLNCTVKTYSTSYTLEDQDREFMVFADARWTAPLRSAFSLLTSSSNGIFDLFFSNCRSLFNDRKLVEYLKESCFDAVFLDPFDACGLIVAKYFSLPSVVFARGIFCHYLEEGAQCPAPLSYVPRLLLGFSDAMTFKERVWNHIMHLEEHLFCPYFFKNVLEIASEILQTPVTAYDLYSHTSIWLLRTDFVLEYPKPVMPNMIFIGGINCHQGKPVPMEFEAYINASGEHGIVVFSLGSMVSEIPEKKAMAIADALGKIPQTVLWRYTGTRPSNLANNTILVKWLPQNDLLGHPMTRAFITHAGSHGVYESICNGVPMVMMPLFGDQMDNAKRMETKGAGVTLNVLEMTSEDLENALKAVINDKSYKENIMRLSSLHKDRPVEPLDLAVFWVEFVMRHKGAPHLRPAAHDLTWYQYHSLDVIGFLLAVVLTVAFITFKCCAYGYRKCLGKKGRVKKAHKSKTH
T2 sequence (P22310 29-534): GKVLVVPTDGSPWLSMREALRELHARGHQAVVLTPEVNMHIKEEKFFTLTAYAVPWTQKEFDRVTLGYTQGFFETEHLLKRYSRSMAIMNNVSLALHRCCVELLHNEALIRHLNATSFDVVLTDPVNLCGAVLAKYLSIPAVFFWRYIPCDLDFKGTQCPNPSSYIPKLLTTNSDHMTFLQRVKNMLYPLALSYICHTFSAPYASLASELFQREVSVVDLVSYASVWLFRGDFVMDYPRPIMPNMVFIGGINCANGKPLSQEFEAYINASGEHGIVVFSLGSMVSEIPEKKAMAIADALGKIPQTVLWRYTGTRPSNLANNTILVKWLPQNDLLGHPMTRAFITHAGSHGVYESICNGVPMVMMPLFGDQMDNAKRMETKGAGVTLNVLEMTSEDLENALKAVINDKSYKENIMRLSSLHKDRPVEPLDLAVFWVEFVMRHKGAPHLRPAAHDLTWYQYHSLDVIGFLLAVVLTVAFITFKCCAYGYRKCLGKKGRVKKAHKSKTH
T3 sequence (P19224 27-532): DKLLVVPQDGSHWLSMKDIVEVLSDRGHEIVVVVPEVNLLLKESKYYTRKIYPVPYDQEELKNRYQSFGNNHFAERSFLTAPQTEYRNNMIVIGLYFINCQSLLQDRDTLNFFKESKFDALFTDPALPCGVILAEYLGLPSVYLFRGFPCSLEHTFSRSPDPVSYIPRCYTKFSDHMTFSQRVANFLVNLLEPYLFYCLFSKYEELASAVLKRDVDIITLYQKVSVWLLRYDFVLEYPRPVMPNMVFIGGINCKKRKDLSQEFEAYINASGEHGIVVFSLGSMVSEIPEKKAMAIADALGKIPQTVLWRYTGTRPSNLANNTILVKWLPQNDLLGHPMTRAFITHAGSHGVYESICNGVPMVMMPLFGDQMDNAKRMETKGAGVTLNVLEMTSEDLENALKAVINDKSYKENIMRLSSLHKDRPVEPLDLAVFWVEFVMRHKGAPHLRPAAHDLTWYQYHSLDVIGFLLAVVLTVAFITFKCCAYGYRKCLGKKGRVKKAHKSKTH
T6 sequence (P54855 24-530): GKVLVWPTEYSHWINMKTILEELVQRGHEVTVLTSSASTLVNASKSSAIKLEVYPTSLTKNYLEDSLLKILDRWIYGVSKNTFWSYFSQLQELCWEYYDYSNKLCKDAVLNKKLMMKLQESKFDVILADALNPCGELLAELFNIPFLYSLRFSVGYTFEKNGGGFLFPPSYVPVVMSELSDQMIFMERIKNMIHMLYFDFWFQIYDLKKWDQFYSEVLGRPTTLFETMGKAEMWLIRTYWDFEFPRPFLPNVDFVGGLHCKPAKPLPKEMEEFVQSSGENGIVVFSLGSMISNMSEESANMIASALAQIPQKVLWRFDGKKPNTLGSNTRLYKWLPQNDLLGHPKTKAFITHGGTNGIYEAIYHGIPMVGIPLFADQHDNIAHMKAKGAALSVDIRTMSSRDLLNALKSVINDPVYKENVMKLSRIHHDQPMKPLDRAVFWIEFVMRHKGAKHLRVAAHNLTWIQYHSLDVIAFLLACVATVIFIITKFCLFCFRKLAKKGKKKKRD
T5 sequence (O60656 26-530): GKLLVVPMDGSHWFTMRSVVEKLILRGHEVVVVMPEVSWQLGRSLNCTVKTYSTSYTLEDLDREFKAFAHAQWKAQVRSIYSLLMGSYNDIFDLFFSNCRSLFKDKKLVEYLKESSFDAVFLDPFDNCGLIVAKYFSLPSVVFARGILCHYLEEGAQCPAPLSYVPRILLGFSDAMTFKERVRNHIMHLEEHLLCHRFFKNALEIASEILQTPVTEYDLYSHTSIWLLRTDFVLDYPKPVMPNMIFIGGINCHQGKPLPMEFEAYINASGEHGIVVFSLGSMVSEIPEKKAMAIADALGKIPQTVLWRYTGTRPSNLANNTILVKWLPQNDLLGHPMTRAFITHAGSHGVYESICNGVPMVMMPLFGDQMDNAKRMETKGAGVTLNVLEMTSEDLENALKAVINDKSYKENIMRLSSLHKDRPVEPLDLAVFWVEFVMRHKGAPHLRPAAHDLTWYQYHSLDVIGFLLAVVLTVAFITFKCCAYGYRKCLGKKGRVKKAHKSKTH

O=C(/C=C/c1cccc(S(=O)(=O)Nc2ccccc2)c1)NO [Belinostat, N-hydroxy-3-(phenylsulphamoylphenyl) acrylamide]
cytotoxicity / cell viability (staining) [1]: significant dose-dependent cytotoxicity
IC50 [2]: 6.4 µM
Histone H3 acetylation [3]: time and concentration dependent increase
metabolism by UGT isoform [4]: no metabolism was observed
metabolism by UGT isoform [5]: no metabolism was observed
metabolism by UGT isoform [6]: no metabolism was observed
metabolism by UGT isoform [7]: no metabolism was observed
metabolism by UGT isoform [8]: no metabolism was observed
metabolism by UGT isoform [9]: no metabolism was observed
metabolism by UGT isoform [10]: no metabolism was observed
tumor growth [11]: Delay of tumor growth was observed
tumor growth [12]: Growth inhibition was also observed
increases in the rate of respiration ([13]; 15 mg/kg and 35 mg/kg): not significantly different
heart rate ([13]; high dose (35 mg/kg)): small transient increase in heart rate
electrocardiogram waveform changes (decrease in RR, PR and QT intervals) [13]: not substantially different from the control group
hemolysis [14]: No hemolysis
mean plasma concentration ([15]; after 0.5 hour): 3300 ± 700 nM
mean plasma concentration ([15]; by 2 hours): 42 ± 2 nM
drug accumulation [16]: no clear indication of drug accumulation
plasma t½ [17]: approximately 40 minutes
systemic and local irritation adverse events (lymphopenia, lymphoid atrophy, injection site reactions) ([18]; 50 mg/kg/day, arginine formulation): mild and fully reversible
no-observable-effect-level (NOEL) ([18]; one study): 10 mg/kg/day
CYP2C9 inhibition [19]: weak to moderate inhibitor
contribution of CYP3A4 to metabolism [20]: contributes to PXD101 metabolism
elimination routes of PXD101 and its metabolites [21]: urinary and fecal routes
inhibition of the five major cytochrome P450 enzymes [22]: did not inhibit
